For 28 compounds, IC50 results are on record in ChEMBL document CHEMBL6134819, “Discovery of novel tranylcypromine-indazole-based derivatives as LSD1 inhibitors for acute myeloid leukemia treatment” (Eur J Med Chem, 2025).

Molecules are shown by their SMILES.

The target of test [1] is Lysine-specific histone demethylase 1A (Homo sapiens, UniProt O60341). The experiment in a line: Inhibition of human recombinant LSD1 (852 residues) incubated for 1 hr by HTRF method.
In the next test the test system is THP-1. The experiment in a line: Antiproliferative activity against human THP-1 cells assessed as inhibition of cell growth measured after 7 days by cell-titer glo assay. Particulars: THP-1, 168 h. In kind it is functional, cell-based.
The next test deals with HL-60. The experiment in a line: Antiproliferative activity against human HL-60 cells assessed as inhibition of cell growth measured after 7 days by cell-titer glo assay. Particulars: HL-60, 168 h. The format is functional, cell-based.
For the next test, the system named is MV4-11. The experiment in a line: Antiproliferative activity against human MV4-11 cells assessed as inhibition of cell growth measured after 7 days by cell-titer glo assay. In kind it is functional, cell-based. Particulars: MV4-11, 168 h.
Test [2] addresses Voltage-gated inwardly rectifying potassium channel KCNH2 (Homo sapiens, UniProt Q12809). Put plainly: Inhibition of human ERG by whole cell patch clamp assay. The format is toxicity.

Chain of Voltage-gated inwardly rectifying potassium channel KCNH2 (Q12809 whole entry): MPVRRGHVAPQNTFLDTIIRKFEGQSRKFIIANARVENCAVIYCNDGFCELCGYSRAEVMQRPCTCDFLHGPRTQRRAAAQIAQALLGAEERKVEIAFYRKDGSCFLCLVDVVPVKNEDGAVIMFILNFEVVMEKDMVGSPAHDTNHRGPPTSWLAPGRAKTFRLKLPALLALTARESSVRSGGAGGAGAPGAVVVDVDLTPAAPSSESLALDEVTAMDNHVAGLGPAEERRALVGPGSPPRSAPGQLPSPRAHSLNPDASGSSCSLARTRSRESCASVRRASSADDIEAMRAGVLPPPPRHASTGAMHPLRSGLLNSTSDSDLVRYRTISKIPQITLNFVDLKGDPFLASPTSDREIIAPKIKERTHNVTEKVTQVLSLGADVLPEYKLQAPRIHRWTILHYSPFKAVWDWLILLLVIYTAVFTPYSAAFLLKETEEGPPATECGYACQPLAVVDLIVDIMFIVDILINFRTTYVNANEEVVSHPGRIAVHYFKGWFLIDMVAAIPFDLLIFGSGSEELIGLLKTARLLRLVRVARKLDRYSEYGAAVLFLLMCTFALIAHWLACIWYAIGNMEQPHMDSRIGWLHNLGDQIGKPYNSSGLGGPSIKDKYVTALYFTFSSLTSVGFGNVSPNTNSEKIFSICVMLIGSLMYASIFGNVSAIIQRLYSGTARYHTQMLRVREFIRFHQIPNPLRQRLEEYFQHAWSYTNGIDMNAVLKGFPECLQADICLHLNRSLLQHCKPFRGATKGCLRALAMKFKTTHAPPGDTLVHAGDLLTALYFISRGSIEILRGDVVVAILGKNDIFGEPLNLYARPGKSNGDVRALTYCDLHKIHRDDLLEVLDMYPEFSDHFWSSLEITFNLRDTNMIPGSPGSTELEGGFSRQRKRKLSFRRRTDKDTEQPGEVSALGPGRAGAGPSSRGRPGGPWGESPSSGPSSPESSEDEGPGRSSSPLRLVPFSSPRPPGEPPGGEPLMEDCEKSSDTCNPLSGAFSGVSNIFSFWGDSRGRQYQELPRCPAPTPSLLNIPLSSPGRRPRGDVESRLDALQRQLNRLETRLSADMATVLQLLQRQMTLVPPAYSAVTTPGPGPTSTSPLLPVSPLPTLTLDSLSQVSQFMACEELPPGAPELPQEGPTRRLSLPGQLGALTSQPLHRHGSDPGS

In the case of `CCn1ncc2cc(-n3cc(CN[C@@H]4C[C@H]4c4ccc(F)c(F)c4)nn3)ccc21`, the IC50 (as a rule, the concentration needed to halve the response being measured) came out at 0.0038 µM in test [1], 6.52 µM in the test on THP-1, 7.83 µM with HL-60 and 3.52 µM with MV4-11.
Consider `O=S(=O)(C1CCCCC1)n1ncc2cc(-n3cc(CN[C@@H]4C[C@H]4c4ccc(F)c(F)c4)nn3)ccc21`, for which the IC50 in test [1] was found to be 0.00482 µM; in the test with THP-1 it was 2.41 µM; in the test on HL-60, 1.88 µM; in the test with MV4-11 it was 4.33 µM.
Regarding `Fc1ccc([C@@H]2C[C@H]2NCc2cn(-c3ccc4c(cnn4CC(F)(F)F)c3)nn2)cc1F`, the IC50 amounted to 0.00159 µM in test [1], 5.01 µM in the test with THP-1, 1.86 µM in the test with HL-60 and 10.9 µM in the test on MV4-11.
In test [2], `Fc1ccc([C@@H]2C[C@H]2NCc2cn(-c3ccc4[nH]ncc4c3)nn2)cc1F` came in with an IC50 of 0.61 µM.
Regarding `Fc1ccc([C@@H]2C[C@H]2NCc2cn(-c3n[nH]c4ccccc34)nn2)cc1F`, the concentration for half-maximal inhibition (IC50) in test [1] was 0.0051 µM; in the test with THP-1 it was more than 25 µM; in the test with HL-60, more than 25 µM; in the test on MV4-11, more than 25 µM.
With `Fc1ccc([C@@H]2C[C@H]2NCc2cn(CCc3ccc4[nH]ncc4c3)nn2)cc1F`, in test [1], the IC50 is 0.0579 µM.
For the compound `CCC(=O)n1ncc2cc(-n3cc(CN[C@@H]4C[C@H]4c4ccc(F)c(F)c4)nn3)ccc21`, the IC50 amounted to 0.0116 µM in test [1], 7.29 µM in the test with THP-1, 1.53 µM in the test with HL-60 and 2.56 µM in the test on MV4-11.
`Fc1ccc([C@@H]2C[C@H]2NCc2cn(-c3ccc4cn[nH]c4c3)nn2)cc1F`: the IC50 in test [1] was 0.0144 µM; with THP-1 it was 3.76 µM; with HL-60 it was more than 25 µM; in the test on MV4-11, more than 25 µM.
Regarding `Fc1ccc([C@@H]2C[C@H]2NCc2cn(-c3cccc4[nH]ncc34)nn2)cc1F`, the IC50 in test [1] turned out to be 0.00663 µM; in the test on THP-1, 3.95 µM; in the test with HL-60 it was 15.5 µM; with MV4-11, 12.5 µM.
The like results for `O=C(Cc1ccccc1)n1ncc2cc(-n3cc(CN[C@@H]4C[C@H]4c4ccc(F)c(F)c4)nn3)ccc21` were, in that order, 0.0156 µM, 8.32 µM, 2.83 µM and 7.84 µM.
The like results for `O=S(=O)(C1CC1)n1ncc2cc(-n3cc(CN[C@@H]4C[C@H]4c4ccc(F)c(F)c4)nn3)ccc21` were, in that order, 0.0043 µM, 3.39 µM, 5.57 µM and 6.32 µM.
For `Cc1cc2[nH]ncc2cc1-n1cc(CN[C@@H]2C[C@H]2c2ccc(F)c(F)c2)nn1` the same measures were 0.0111 µM, 5.7 µM, 4.11 µM and 6.28 µM.
For `O=C(C1CCCCC1)n1ncc2cc(-n3cc(CN[C@@H]4C[C@H]4c4ccc(F)c(F)c4)nn3)ccc21`, the IC50 worked out at 0.0159 µM in test [1], 5.57 µM in the test with THP-1, 3 µM with HL-60 and 9.67 µM in the test on MV4-11.
The like results for `CC(=O)n1ncc2cc(-n3cc(CN[C@@H]4C[C@H]4c4ccc(F)c(F)c4)nn3)ccc21` were, in that order, 0.0084 µM, 5.4 µM, 4.22 µM and 3.87 µM.
For the compound `Fc1ccc([C@@H]2C[C@H]2NCc2cn(-c3ccc4c(cnn4Cc4ccccc4)c3)nn2)cc1F`, the IC50 in test [1] amounted to 0.00828 µM; with THP-1, 1.67 µM; in the test on HL-60, 3.83 µM; in the test on MV4-11, 4.08 µM.
For the compound `CC(C)C(=O)n1ncc2cc(-n3cc(CN[C@@H]4C[C@H]4c4ccc(F)c(F)c4)nn3)ccc21`, the IC50 is 0.00997 µM in test [1], 3.59 µM with THP-1, 3.42 µM in the test with HL-60 and 3.89 µM in the test with MV4-11.
`CCS(=O)(=O)n1ncc2cc(-n3cc(CN[C@@H]4C[C@H]4c4ccc(F)c(F)c4)nn3)ccc21`: the IC50 in test [1] was determined as 0.00777 µM; with THP-1, 4.59 µM; in the test with HL-60, 6.81 µM; with MV4-11, 11.5 µM.
The like results for `Cn1ncc2cc(-n3cc(CN[C@@H]4C[C@H]4c4ccc(F)c(F)c4)nn3)ccc21` were, in that order, 0.00462 µM, 4.52 µM, 2.49 µM and 17.1 µM.
The like results for `Fc1ccc([C@@H]2C[C@H]2NCc2cn(Cc3ccc4[nH]ncc4c3)nn2)cc1F` were, in that order, 0.0115 µM, 6.34 µM, 2.47 µM and 6.56 µM.
For `CS(=O)(=O)n1ncc2cc(-n3cc(CN[C@@H]4C[C@H]4c4ccc(F)c(F)c4)nn3)ccc21` the same measures were 0.0146 µM, 24.3 µM, 2.41 µM and 3.31 µM.
As to `COc1cc2[nH]ncc2cc1-n1cc(CN[C@@H]2C[C@H]2c2ccc(F)c(F)c2)nn1`, the IC50 in test [1] worked out at 0.00346 µM; in the test with THP-1, 12.6 µM; in the test on HL-60 it was 10.9 µM; in the test with MV4-11 it was 8.74 µM.
The like results for `O=C(c1ccccc1)n1ncc2cc(-n3cc(CN[C@@H]4C[C@H]4c4ccc(F)c(F)c4)nn3)ccc21` were, in that order, 0.00755 µM, 12.9 µM, 2.81 µM and 6.3 µM.
The like results for `O=C(C1CC1)n1ncc2cc(-n3cc(CN[C@@H]4C[C@H]4c4ccc(F)c(F)c4)nn3)ccc21` were, in that order, 0.0123 µM, 5.94 µM, 5.5 µM and 2.61 µM.
Regarding `Fc1ccc([C@@H]2C[C@H]2NCc2cn(-c3ccc4c(cnn4C4CCCC4)c3)nn2)cc1F`, the IC50 in test [1] amounted to 0.00414 µM; with THP-1 it was 3.88 µM; with HL-60, 4.05 µM; with MV4-11, 2.86 µM.
The like results for `O=C(C1CCC1)n1ncc2cc(-n3cc(CN[C@@H]4C[C@H]4c4ccc(F)c(F)c4)nn3)ccc21` were, in that order, 0.0155 µM, 10.9 µM, 6.12 µM and 5.51 µM.
Take `O=C(C1CCCC1)n1ncc2cc(-n3cc(CN[C@@H]4C[C@H]4c4ccc(F)c(F)c4)nn3)ccc21`: the IC50 in test [1] turned out to be 0.012 µM; in the test with THP-1, 8.37 µM; in the test on HL-60 it was 3.44 µM; in the test with MV4-11, 8.25 µM.
The like results for `Fc1ccc([C@@H]2C[C@H]2NCc2cn(-c3cc4cn[nH]c4cc3F)nn2)cc1F` were, in that order, 0.00645 µM, 7.5 µM, 7.44 µM and 6.86 µM.
For the compound `Fc1ccc([C@@H]2C[C@H]2NCc2cn(-c3cnc4[nH]ncc4c3)nn2)cc1F`, the IC50 in test [1] worked out at 0.0209 µM.
